Measured values taken from US10273333B2, “Substituted polyesters by thiol-ene modification: rapid diversification for therapeutic protein stabilization” (THE REGENTS OF THE UNIVERSITY OF CALIFORNIA, priority 2014, dated 2019).

Experiments:
[1] = target: T1, granulocyte colony-stimulating factor (G-CSF) (Homo sapiens, UniProt P09919); test: G-CSF stabilization studies; G-CSF bioactivity by NFS-60 cell proliferation (CellTiter-Blue); format: cell-based; details: 60° C. for 30 minutes; small molecules at the concentration of stabilizing units in pCL-zwitterion80, Tween 80 and polymers at 100 weight equivalents; FIG. 74
T1 construct: host or cells: E. coli
T1 sequence (P09919 31-204 isoform P09919-2 limits assumed): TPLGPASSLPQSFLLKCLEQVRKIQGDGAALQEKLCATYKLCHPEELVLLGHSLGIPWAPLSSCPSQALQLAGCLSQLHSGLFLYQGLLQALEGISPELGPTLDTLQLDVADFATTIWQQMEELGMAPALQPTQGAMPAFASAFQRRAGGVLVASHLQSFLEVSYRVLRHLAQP
Method: G-CSF Stabilization Studies: G-CSF samples (25 μL) were prepared in 10 mM acetate buffer, pH 4.0 at 1 μg/mL with 100 equivalents polymer additive by weight. Samples were stored at 4° C. for 90 minutes or 60° C. for 30 minutes and then were diluted with cold RPMI-1640 medium+10% FBS (735 μL). The samples were then further diluted with RPMI-1640+10% FBS to a final concentration of 1 ng/mL. G-CSF bioactivity was then assayed in a NFS-60 mouse myelogenous leukemia lymphoblast cell line. NFS-60 cells were cultured in RPMI-1640 medium supplemented with 10% FBS and 2 ng/mL interleukin-3 (IL-3) at 37° C./5% CO2. NFS-60 cells were passaged at least three times before used in proliferation experiments. Prior to treating NFS-60 cells with G-CSF samples, NFS-60 cells were collected and resuspended in RPMI-1640 with 10% FBS (without additional growth factors). Cells were plated in the internal wells of a 96 well plate at a density of 20,000 cells per well in 50 μL of medium. G-CSF solution (50 μL) was then added to provide a final concentration of 0.5 ng/mL and total well volume of 100 μL. Following 48 h incubation at 37° C./5% CO2, CellTiter-Blue viability assay was performed to measure cell proliferation. All experimental groups were normalized to the control of the control of media alone without G-CSF addition. All p values were calculated using the independent Student's t test assuming unequal variances.
Next the ability of the polymer to protect protein activity against environmental stressors was assessed. The therapeutic protein granulocyte colony-stimulating factor (G-CSF) was selected to compare excipient efficacy due to its clinical importance. […] G-CSF is highly unstable at physiological pH and is therefore stored at pH 4.0; still at this pH the protein readily degrades upon storage or subjection to heat (Krishnan et al., 2002). […] Protein activity was determined by measuring cell proliferation in murine myeloid leukemia NFS-60 cells, which is enhanced in the presence of GCSF, and compared to the proliferation of freshly diluted protein (Shirafuji et al., 1989).

[2] = Differential scanning calorimetry (DSC): melting and crystallization enthalpy of water; format: physicochemical; details: 1 mol % of the stabilizing unit; for ΔHc (change in crystallization enthalpy of water) / ΔHm (change in melting enthalpy of water): relative to water; for Hc (crystallization enthalpy of water) / Hm (melting enthalpy of water): second heat/cool run, in J/g (unit assumed)
Method: Solutions of trehalose, betaine, pCL-trehalose80, and pCL-zwitterion80 were made at 1 mol % of the stabilizing unit (trehalose or betaine) and analyzed by DSC (TA Instruments Q2000). Runs were carried out using two heat/cool cycles from −40° C. to 40° C. at […] and values were taken from the second run.

lysozyme = lysozyme (Gallus gallus, UniProt P00698); test: Lysozyme stabilization against heat stress (90° C., 20 minutes), EnzChek lysozyme activity assay; format: biochemical; details: heated 90° C. for 20 minutes; 5 to 25 wt eq. excipient; FIG. 12a
Sequence of lysozyme (P00698 19-147): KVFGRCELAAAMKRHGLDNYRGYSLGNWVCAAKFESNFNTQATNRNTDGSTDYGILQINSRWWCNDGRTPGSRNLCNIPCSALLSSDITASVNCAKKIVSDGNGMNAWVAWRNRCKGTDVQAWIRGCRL
Method: The ability of these biodegradable trehalose polymers to stabilize proteins was confirmed through heat and lyophilization stress assays. […] Therefore, these proteins were also selected to test the biodegradable trehalose polymers. First, lysozyme was stressed by heating to 90° C. for 20 minutes.
[…] Samples were further diluted to a concentration of 0.021 mg/mL (1 kU/mL) and […] aliquots were prepared in 0.5 mL LoBind Eppendorf tubes. Each aliquot was heated to 90° C. for 20 minutes at 500 rpm, then cooled to 4° C. and centrifuged for 1 minute at 10,000 rpm. Samples were stored at 4° C. until activity was evaluated all together using the EnzChek® lysozyme activity assay.
Aliquots containing 20 μL of lysozyme-glycopolymer solution were diluted to 100 μL with PBS pH 7.4. 50 μL of the resulting solution was removed and incubated with 50 μL of Micrococcus luteus labeled with FITC (1 mg/mL) at 37° C. for 30 minutes in a 96-well plate. The resulting fluorescence was measured (abs 480 nm/em 530 nm) and quantified relative to a known concentration curve. Statistics to determine significance were calculated using the Students t test; % confidence as +/−=t(standard deviation)/(number of trials)½ with p<1−% confidence/100.

β-galactosidase (β-Gal) = details: three 12-hour desiccation (lyophilization) cycles; excipient; FIG. 12b
Method: The stabilization of β-Gal against lyophilization stress was also measured. […] The activity of β-Gal was determined by reaction with ortho-nitrophenol galactose (ONPG). When incubated with β-Gal, release of the yellow-colored o-nitrophenol from ONPG can be monitored at 405 nm.
The activity of β-Gal was determined by reaction with ortho-nitrophenol galactose (ONPG). When incubated with β-Gal, release of the yellow-colored o-nitrophenol from ONPG can be monitored at 405 nm.
Lyophilization studies with β-galactosidase were carried out as previously described; 8-Gal was subjected to three 12 hour lyophliization cycles before dilution. Activity was assayed by monitoring the hydrolysis of o-nitrophenol galactose (ONPG) at 405 nm.

G-CSF activity / cell proliferation, comparison with small-molecule excipients [1]	Compound	ΔHc (change in crystallization enthalpy of water) [2]	ΔHm (change in melting enthalpy of water) [2]	Hc (crystallization enthalpy of water) [2]	Hm (melting enthalpy of water) [2]	lysozyme activity retained (of native activity) (lysozyme)	β-Gal activity maintained (of native activity) (β-galactosidase (β-Gal))
maintained high protein activity	CCCCCCCC/C=C\CCCCCCCC(=O)OCCOCC(OCCO)C1OCC(OCCO)C1OCCO (stereo not shown) [Tween 80, polysorbate 80]						
little stabilizing effect	C[N+](C)(C)CC(=O)O [betaine]	73.2	−98.4	−179	198.1		
little stabilizing effect	OC[C@H]1O[C@@](CO)(O[C@H]2O[C@H](CO)[C@@H](O)[C@H](O)[C@H]2O)[C@@H](O)[C@@H]1O [sucrose]						
	OC[C@H]1O[C@H](O[C@H]2O[C@H](CO)[C@@H](O)[C@H](O)[C@H]2O)[C@H](O)[C@@H](O)[C@@H]1O [trehalose]	22.3	−47.4	−229.9	249.1	not significantly different from the negative control	up to 67%
